Patent US9796700B2 (Celgene CAR LLC, priority 2013, dated 2017)
pEC50, pIC50: −log10 of the molar value. Read-outs that look alike come from different tables or passages of the source.

What was measured:
[1] = test system: p-RSK (ERK activity) in cells after compound washout; assay: Measurement of duration of action of test compounds (pRSK after washout); format: cell-based; details: 6 hr after compound washout
Method: The protocol below describes an assay to measure the kinase activity of ERK1 to phosphorylate its substrate, RSK, in the presence of a test compound. This experiment was conducted using a Mesoscale Discovery plate. The day before the assay, HT29 cells were split and plated at 50,000 cells/well in complete growth media. After allowing cells to adhere, the media was removed and replaced with media containing 0.1% FBS and incubated overnight. Blank MDS plates were coated with 25 μl/well RSK capture antibody and incubated at 4° C. overnight. The next day, the media was removed and replaced with 100 μl of media containing a test compound and incubated for 120 minutes at 37° C. The media was removed and replaced with 55 μl of well lysis buffer with protease and phosphatase inhibitors provided in the kit, followed by incubation at 4° C. for 30 minutes. 50 μl of lysate was transferred to a blocked MSD plate, followed by incubation at room temperature for 2 hours under constant shaking. The plate was washed 3 times with MSD wash buffer (cat#R617TX), and 25 μl/well phospho-RSK (pRSK) detection antibody was added with an appropriate Sulfo-tagged anti-species detection antibody diluted in 1% BSA in MSD wash buffer. This mixture was incubated for 1 hour at room temperature under constant shaking. The plate was washed 3 times, and 150 μl 1×MSD read buffer was added, followed by signal detection in an MSD plate reader.
Measurement of Duration of Action of Test Compounds
One day before the assay, the cells were split and added at 50,000 cells per well in flat-bottom 96 well plate in 200 μl of growth media. The next day, the medium was discarded, 100 μl medium containing test compounds was added, and the plate was incubated at 37° C. for 120 minutes. The medium was discarded, and the cells were rinsed 3 times with PBS followed by addition of 200 μl of fresh grow medium. The plate was returned to a 37° C. incubator, and separate cell lysates were made using MSD lysis buffer after 0.25, 0.5, 1, 2, 4, 6, 8 and 18 or 24 hours. Thereafter, pRSK was measured as described above in the section entitled pRSK MSD Assay. The data is presented in Table A under the column titled “p-RSK inhibition at 6 hr (%).”

[2] = test system: ERK1 phosphorylation of its substrate RSK in HT29 cells; assay: pRSK MSD Assay in HT29 cells; format: cell-based; details: Homo sapiens, HT-29, HT29 cells; read-out: ERK1 PRSK MSD HT29 EC50
Method in brief: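 HT29 cells were serum-starved overnight in 0.1% FBS, then treated with compound for 120 min at 37 °C. Lysates were assayed on MSD plates with RSK capture and phospho-RSK detection antibodies using electrochemiluminescence read-out.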

Erk1 [3] = target: T1, Erk1 (Homo sapiens (Human), UniProt P27361); assay: Protein Mass Modification Assay (intact protein MALDI); format: binding
Method in brief: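 Percent covalent modification comes from the intact-protein MALDI centroid mass shift, treated versus control, divided by compound MW. Before analysis, human Erk1 was exposed to compound at 10-fold excess over protein for 60 min at room temperature.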
Target sequence in this assay (P27361 whole entry, looked up): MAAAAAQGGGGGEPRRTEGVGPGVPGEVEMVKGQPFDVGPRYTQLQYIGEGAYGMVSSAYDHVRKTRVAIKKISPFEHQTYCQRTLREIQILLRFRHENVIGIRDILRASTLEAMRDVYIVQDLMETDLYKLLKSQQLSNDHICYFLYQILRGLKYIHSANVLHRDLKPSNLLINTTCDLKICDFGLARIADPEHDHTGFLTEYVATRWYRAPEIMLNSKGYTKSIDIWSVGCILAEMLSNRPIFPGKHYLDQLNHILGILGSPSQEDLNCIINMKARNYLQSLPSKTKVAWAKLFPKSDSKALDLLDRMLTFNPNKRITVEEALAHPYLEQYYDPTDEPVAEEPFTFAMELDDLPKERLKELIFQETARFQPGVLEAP

MEK1 activated ERK1 = MEK1 activated ERK1 (Homo sapiens (Human), UniProt P27361); assay: Omnia continuous-read kinase assay for potency against MEK1 activated ERK1; format: biochemical
Method in brief: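 Apparent IC50 came from initial reaction slopes (RFU vs time) plotted against log inhibitor with a variable-slope fit. Reactions were started with ERK1 (4 nM final) added to 50 μM ATP, roughly at its appKM, and 10 μM Sox-conjugated ST17 peptide in 20 mM Tris pH 7.5, 5 mM MgCl2. Fluorescence was monitored every 71 seconds.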

Erk1 [4] = target: T1, Erk1; assay: Measurement of Erk occupancy with biotinylated covalent probe I-299; format: cell-based; details: HT-29 cells
Method: Measurement of Erk Occupancy with Biotinylated Covalent Probe
This experiment measured occupancy of the ERK1 target by compounds according to the invention. This experiment was conducted using the Mesoscale Discovery test kit (Cat. #N45107B). One day before the assay, cells were split and added at 50,000 cells per well to a flat-bottom 96 well plate in 200 μl of growth medium. The next day, the medium was discarded, 100 μl medium containing test compound was added, and the plate was incubated at 37° C. for 120 minutes. The plate was rinsed once with PBS, and 50 μl lysis buffer with test compound was added. The plate was incubated at 4° C. for 30 min, and 30 μl of lysate was transferred to a plate to capture total and phosphor-Erk. Biotinylated probe I-299 was diluted in lysis buffer and added to each well to a final concentration of 0.2 μM. The plate was incubated for 2 hr under constant shaking at room temperature. The plate was washed 3 times with MSD wash buffer. To detect the biotinylated probe bonding, tagged streptavidin was added (MSD, Cat#R32AD-1) at 1 μg/ml, 25 μl/well, followed by a 60 min incubation under shaking. The plate was washed 3 times, 150 μl MSD Read Buffer (Cat#R61TX) was added and the plate was read in a plate reader manufactured by MSD. Percent occupancy by test compound at Erk was calculated by comparing the chemiluminescence readings from treated cells as compared to the chemiluminescence readings in untreated controls (which are defined as 100% probe bonding or 0% occupancy). The amount of covalent probe signal divided by the amount of ERK signal for samples with no test compound treatment represents the maximum probe signal (MPS). In samples treated with test compound prior to covalent probe, the ratio of probe signal to ERK signal (the test probe signal, TPS) was reduced by the degree of target occupancy by the test compound which blocks covalent probe binding. The difference between the MPS and the TPS, divided by the MPS gave the target occupancy by the test compound. This ratio was then expressed as a percent occupancy. Results from this assay are provided in Table A below under the column “Occupancy EC50 (nM) HT-29.”
Target sequence in this assay (P27361 2-379 limits assumed): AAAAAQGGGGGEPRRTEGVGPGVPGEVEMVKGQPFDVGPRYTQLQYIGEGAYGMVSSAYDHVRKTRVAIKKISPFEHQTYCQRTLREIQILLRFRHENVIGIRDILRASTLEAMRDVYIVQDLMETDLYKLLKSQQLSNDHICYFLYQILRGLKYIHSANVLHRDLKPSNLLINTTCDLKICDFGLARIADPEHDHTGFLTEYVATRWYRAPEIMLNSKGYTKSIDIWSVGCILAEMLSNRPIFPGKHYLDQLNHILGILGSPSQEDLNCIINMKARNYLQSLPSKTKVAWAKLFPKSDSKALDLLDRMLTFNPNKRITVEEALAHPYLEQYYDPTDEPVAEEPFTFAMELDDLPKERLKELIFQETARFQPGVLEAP

[5] = MEK1 activated ERK1, WT, ATP at KM

MEK1 activated ERK1, sequence (P27361 whole entry): as the sequence (P27361 whole entry, looked up) above

pEC50 [2]	ERK1 Mass Mod (%) (Erk1 [3])	pIC50 (MEK1 activated ERK1; [5])	EC50 (Erk1 [4]) [nM]	SMILES	p-RSK inhibition at 6 hr (%) [1]	pIC50 (MEK1 activated ERK1; read-out: ERK1 Omnia WT ATP KM IC50)
> 7.00	E (provided a mass modification of ≧70%)	> 7.00	–	C=CC(=O)Nc1ccccc1Nc1nc(N[C@H]2CCCN(C(=O)CO)C2)ncc1C(F)(F)F [Compound I-15, (S)—N-(2-((2-((1-(2-hydroxyacetyl)piperidin-3-yl)amino)-5-(trifluoromethyl)pyrimidin-4-yl)amino)phenyl)acrylamide]	E (provided a p-RSK inhibition percent of ≧70%)	–
–	E (provided a mass modification of ≧70%)	> 7.00	< 100	C=CC(=O)Nc1ccccc1Nc1nc(Nc2cc(CO)c(F)cc2C)ncc1C(F)(F)F [Compound I-77, N-(2-((2-((4-Fluoro-5-(hydroxymethyl)-2-methylphenyl)amino)-5-(trifluoromethyl)pyrimidin-4-yl)amino)phenyl)acrylamide]	–	–
–	E (provided a mass modification of ≧70%)	–	–	C=CC(=O)Nc1cc(C)ccc1Nc1nc(Nc2cc(C(N)=O)ccc2C)ncc1C(F)(F)F [Compound I-79, 3-((4-((2-Acrylamido-4-methylphenyl)amino)-5-(trifluoromethyl)pyrimidin-2-yl)amino)-4-methylbenzamide]	E (provided a p-RSK inhibition percent of ≧70%)	–
–	G (proived a mass modification ≦30%)	6.30 to 7.00	–	C=CC(=O)Nc1ccccc1Nc1nc(Nc2cc(OC)ncc2C)ncc1C(F)(F)F [Compound I-85, N-(2-((2-((2-Methoxy-5-methylpyridin-4-yl)amino)-5-(trifluoromethyl)pyrimidin-4-yl)amino)phenyl)acrylamide]	E (provided a p-RSK inhibition percent of ≧70%)	–
–	–	> 7.00	–	C=CC(=O)Nc1ccccc1Nc1nc(Nc2cncc(OC)c2)ncc1C(F)(F)F [Compound I-86, N-(2-((2-((5-Methoxypyridin-3-yl)amino)-5-(trifluoromethyl)pyrimidin-4-yl)amino)phenyl)acrylamide]	E (provided a p-RSK inhibition percent of ≧70%)	–
–	E (provided a mass modification of ≧70%)	> 7.00	–	C=CC(=O)Nc1cc(C)ccc1Nc1nc(N[C@H]2CCCN(C(=O)CO)C2)ncc1Cl [Compound I-140, (S)—N-(2-((5-chloro-2-((1-(2-hydroxyacetyl)piperidin-3-yl)amino)pyrimidin-4-yl)amino)-5-methylphenyl)acrylamide]	F (provided a p-RSK inhibition percent of 31-69%)	–
–	E (provided a mass modification of ≧70%)	> 7.00	< 100	C=CC(=O)Nc1ccccc1Nc1nc(Nc2cc(S(N)(=O)=O)ccc2C)ncc1Cl [Compound I-205, N-(2-((5-chloro-2-((2-methyl-5-sulfamoylphenyl)amino)pyrimidin-4-yl)amino)phenyl)acrylamide]	–	–
–	E (provided a mass modification of ≧70%)	> 7.00	< 100	C=CC(=O)Nc1cc(F)ccc1Nc1nc(Nc2cc(C(N)=O)ccc2C)ncc1Cl [Compound I-206, 3-((4-((2-acrylamido-4-fluorophenyl)amino)-5-chloropyrimidin-2-yl)amino)-4-methylbenzamide]	–	–
–	E (provided a mass modification of ≧70%)	> 7.00	–	C=CC(=O)Nc1cc(C)ccc1Nc1nc(Nc2cc(C(N)=O)ccc2C)ncc1Cl [Compound I-229, 3-((4-((2-acrylamido-4-methylphenyl)amino)-5-chloropyrimidin-2-yl)amino)-4-methylbenzamide]	E (provided a p-RSK inhibition percent of ≧70%)	–
–	E (provided a mass modification of ≧70%)	> 7.00	–	C=CC(=O)Nc1ccccc1Nc1nc(Nc2cc(OC)ncc2C)ncc1Cl [Compound I-240, N-(2-((5-chloro-2-((2-methoxy-5-methylpyridin-4-yl)amino)pyrimidin-4-yl)amino)phenyl)acrylamide]	E (provided a p-RSK inhibition percent of ≧70%)	–
–	E (provided a mass modification of ≧70%)	> 7.00	–	C=CC(=O)Nc1cc(C)ccc1Nc1nc(Nc2cc(OC)ncc2C)ncc1Cl [Compound I-241, N-(2-((5-chloro-2-((2-methoxy-5-methylpyridin-4-yl)amino)pyrimidin-4-yl)amino)-5-methylphenyl)acrylamide]	E (provided a p-RSK inhibition percent of ≧70%)	–
–	E (provided a mass modification of ≧70%)	> 7.00	–	C=CC(=O)Nc1cc(OC)ccc1Nc1nc(Nc2cc(OC)ncc2C)ncc1Cl [Compound I-242, N-(2-((5-chloro-2-((2-methoxy-5-methylpyridin-4-yl)amino)pyrimidin-4-yl)amino)-5-methoxyphenyl)acrylamide]	E (provided a p-RSK inhibition percent of ≧70%)	–
–	E (provided a mass modification of ≧70%)	> 7.00	< 100	C=CC(=O)Nc1ccccc1Nc1nc(Nc2cc(C(N)=O)ccc2C)ncc1Cl [Compound I-319, 3-(4-(2-acrylamidophenylamino)-5-chloropyrimidin-2-ylamino)-4-methylbenzamide]	–	–

SMILES	pEC50 [2]	ERK1 Mass Mod (%) (Erk1 [3])	pIC50 (MEK1 activated ERK1; [5])	EC50 (Erk1 [4]) [nM]	p-RSK inhibition at 6 hr (%) [1]	pIC50 (MEK1 activated ERK1; read-out: ERK1 Omnia WT ATP KM IC50)
C=CC(=O)Nc1ccccc1Nc1nc(Nc2ccc(F)cc2C#N)ncc1Cl [Compound I-211, N-(2-((5-chloro-2-((2-cyano-4-fluorophenyl)amino)pyrimidin-4-yl)amino)phenyl) acrylamide]	–	F (provided a mass modification of 31-69%)	> 7.00	< 100	–	–
C=CC(=O)Nc1cc(F)ccc1Nc1nc(Nc2ccc(F)cc2C)ncc1Cl [Compound I-212, N-(2-((5-chloro-2-((4-fluoro-2-methylphenyl)amino)pyrimidin-4-yl)amino)-5-fluorophenyl)acrylamide]	–	F (key: E: provided a mass modification of ≧70%; F: provided a mass modification of 31-69%; G: proived a mass modification ≦30%)	–	< 100	–	> 7.00
C=CC(=O)Nc1ccccc1Nc1nc(Nc2cc(C(N)=O)c(F)cc2C)ncc1Cl [Compound I-214, 5-((4-((2-acrylamidophenyl)amino)-5-chloropyrimidin-2-yl)amino)-2-fluoro-4-methylbenzamide]	–	F (provided a mass modification of 31-69%)	> 7.00	< 100	–	–
